Source: PubChem BioAssay (NCI)
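How tested: cells in 96-well plates exposed to compound for 48 hours at five concentrations. At the TGI there is no net growth.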

How the values were obtained:
Experiment in all cases: NCI tumour cell line growth inhibition, 48 h
UACC-62 melanoma = tested on: UACC-62 melanoma
OVCAR-4 ovarian = tested on: OVCAR-4 ovarian
COLO 205 colon = tested on: COLO 205 colon
ACHN renal = tested on: ACHN renal
U251 CNS = tested on: U251 CNS
MALME-3M melanoma = tested on: MALME-3M melanoma
SNB-19 CNS = tested on: SNB-19 CNS
DMS 114 small cell lung = tested on: DMS 114 small cell lung
UO-31 renal = tested on: UO-31 renal
HCT-116 colon = tested on: HCT-116 colon
CAKI-1 renal = tested on: CAKI-1 renal
NCI-H226 lung = tested on: NCI-H226 lung
HOP-62 NSCLC = tested on: HOP-62 NSCLC
SF-295 CNS = tested on: SF-295 CNS
SF-268 CNS = tested on: SF-268 CNS
HT29 colon = tested on: HT29 colon
NCI-H522 lung = tested on: NCI-H522 lung
OVCAR-8 ovarian = tested on: OVCAR-8 ovarian
SF-539 CNS = tested on: SF-539 CNS
M14 melanoma = tested on: M14 melanoma
SK-MEL-5 melanoma = tested on: SK-MEL-5 melanoma
SNB-75 CNS = tested on: SNB-75 CNS
K-562 leukemia = tested on: K-562 leukemia
A549 NSCLC = tested on: A549 NSCLC
MOLT-4 leukemia = tested on: MOLT-4 leukemia
SK-MEL-2 melanoma = tested on: SK-MEL-2 melanoma
HCT-15 colon = tested on: HCT-15 colon
EKVX NSCLC = tested on: EKVX NSCLC
XF 498 CNS = tested on: XF 498 CNS
KM20L2 colon = tested on: KM20L2 colon
RXF-631 renal = tested on: RXF-631 renal
A498 renal = tested on: A498 renal
CCRF-CEM leukemia = tested on: CCRF-CEM leukemia
786-0 renal = tested on: 786-0 renal
UACC-257 melanoma = tested on: UACC-257 melanoma
SN12C renal = tested on: SN12C renal
HCC-2998 colon = tested on: HCC-2998 colon
NCI-H460 lung = tested on: NCI-H460 lung
DMS 273 small cell lung = tested on: DMS 273 small cell lung
IGROV1 ovarian = tested on: IGROV1 ovarian
DLD-1 colon = tested on: DLD-1 colon
SW-620 colon = tested on: SW-620 colon
OVCAR-5 ovarian = tested on: OVCAR-5 ovarian
OVCAR-3 ovarian = tested on: OVCAR-3 ovarian
SNB-78 CNS = tested on: SNB-78 CNS
HL-60(TB) leukemia = tested on: HL-60(TB) leukemia
SR leukemia = tested on: SR leukemia
LXFL 529 NSCLC = tested on: LXFL 529 NSCLC
HOP-92 NSCLC = tested on: HOP-92 NSCLC
LOX IMVI melanoma = tested on: LOX IMVI melanoma
KM12 colon = tested on: KM12 colon
HOP-18 NSCLC = tested on: HOP-18 NSCLC
NCI-H23 lung = tested on: NCI-H23 lung
SK-OV-3 ovarian = tested on: SK-OV-3 ovarian
TK-10 renal = tested on: TK-10 renal
SK-MEL-28 melanoma = tested on: SK-MEL-28 melanoma
RXF 393 renal = tested on: RXF 393 renal
M19-MEL melanoma = tested on: M19-MEL melanoma
RPMI-8226 leukemia = tested on: RPMI-8226 leukemia

COc1ccc(/C(=N/Nc2ccccc2)C(c2ccc(OC)cc2)C2OC(=O)c3ccccc32)cc1 (stereo not given)
TGI (UACC-62 melanoma): > 100 µM | TGI (OVCAR-4 ovarian): > 100 µM | TGI (COLO 205 colon): > 100 µM | TGI (ACHN renal): > 100 µM | TGI (U251 CNS): > 100 µM | TGI (MALME-3M melanoma): > 100 µM | TGI (SNB-19 CNS): > 100 µM | TGI (DMS 114 small cell lung): > 100 µM | TGI (UO-31 renal): > 100 µM | TGI (HCT-116 colon): > 100 µM | TGI (CAKI-1 renal): > 100 µM | TGI (NCI-H226 lung): 65.8 µM | TGI (HOP-62 NSCLC): > 100 µM | TGI (SF-295 CNS): > 100 µM | TGI (SF-268 CNS): 91.8 µM | TGI (HT29 colon): > 100 µM | TGI (NCI-H522 lung): > 100 µM | TGI (OVCAR-8 ovarian): > 100 µM | TGI (SF-539 CNS): > 100 µM | TGI (M14 melanoma): > 100 µM | TGI (SK-MEL-5 melanoma): > 100 µM | TGI (SNB-75 CNS): > 100 µM | TGI (K-562 leukemia): > 100 µM | TGI (A549 NSCLC): > 100 µM | TGI (MOLT-4 leukemia): > 100 µM | TGI (SK-MEL-2 melanoma): > 100 µM | TGI (HCT-15 colon): > 100 µM | TGI (EKVX NSCLC): > 100 µM | TGI (XF 498 CNS): > 100 µM | TGI (KM20L2 colon): > 100 µM | TGI (RXF-631 renal): > 100 µM | TGI (A498 renal): > 100 µM | TGI (CCRF-CEM leukemia): > 100 µM | TGI (786-0 renal): > 100 µM | TGI (UACC-257 melanoma): > 100 µM | TGI (SN12C renal): > 100 µM | TGI (HCC-2998 colon): > 100 µM | TGI (NCI-H460 lung): > 100 µM | TGI (DMS 273 small cell lung): > 100 µM | TGI (IGROV1 ovarian): > 100 µM

CCSC1=C(C)N(C=NC(C)(C)C)CC1
TGI (DLD-1 colon): > 100 µM | TGI (UACC-62 melanoma): > 100 µM | TGI (OVCAR-4 ovarian): > 100 µM | TGI (COLO 205 colon): > 100 µM | TGI (ACHN renal): > 100 µM | TGI (SW-620 colon): 73.8 µM | TGI (U251 CNS): > 100 µM | TGI (MALME-3M melanoma): > 100 µM | TGI (OVCAR-5 ovarian): > 100 µM | TGI (SNB-19 CNS): > 100 µM | TGI (OVCAR-3 ovarian): > 100 µM | TGI (SNB-78 CNS): > 100 µM | TGI (HL-60(TB) leukemia): > 100 µM | TGI (SR leukemia): > 100 µM | TGI (DMS 114 small cell lung): > 100 µM | TGI (UO-31 renal): > 100 µM | TGI (HCT-116 colon): > 100 µM | TGI (CAKI-1 renal): > 100 µM | TGI (NCI-H226 lung): > 100 µM | TGI (LXFL 529 NSCLC): > 100 µM | TGI (HOP-62 NSCLC): > 100 µM | TGI (SF-295 CNS): > 100 µM | TGI (SF-268 CNS): > 100 µM | TGI (HT29 colon): > 100 µM | TGI (NCI-H522 lung): > 100 µM | TGI (OVCAR-8 ovarian): > 100 µM | TGI (HOP-92 NSCLC): > 100 µM | TGI (SF-539 CNS): > 100 µM | TGI (M14 melanoma): > 100 µM | TGI (SK-MEL-5 melanoma): > 100 µM | TGI (SNB-75 CNS): > 100 µM | TGI (LOX IMVI melanoma): > 100 µM | TGI (K-562 leukemia): > 100 µM | TGI (A549 NSCLC): > 100 µM | TGI (MOLT-4 leukemia): > 100 µM | TGI (KM12 colon): > 100 µM | TGI (HOP-18 NSCLC): > 100 µM | TGI (SK-MEL-2 melanoma): > 100 µM | TGI (NCI-H23 lung): > 100 µM | TGI (HCT-15 colon): > 100 µM | TGI (EKVX NSCLC): > 100 µM | TGI (SK-OV-3 ovarian): > 100 µM | TGI (TK-10 renal): > 100 µM | TGI (XF 498 CNS): > 100 µM | TGI (KM20L2 colon): > 100 µM | TGI (RXF-631 renal): > 100 µM | TGI (A498 renal): > 100 µM | TGI (CCRF-CEM leukemia): > 100 µM | TGI (786-0 renal): > 100 µM | TGI (UACC-257 melanoma): > 100 µM | TGI (SN12C renal): > 100 µM | TGI (HCC-2998 colon): > 100 µM | TGI (SK-MEL-28 melanoma): > 100 µM | TGI (NCI-H460 lung): > 100 µM | TGI (DMS 273 small cell lung): > 100 µM | TGI (RXF 393 renal): > 100 µM | TGI (IGROV1 ovarian): > 100 µM | TGI (M19-MEL melanoma): > 100 µM

COc1cc2c(cc1O)CC13CCC(=O)N1CCc1cc(OC)c(O)c-2c13 (stereo not given)
TGI (DLD-1 colon): > 68.1 µM | TGI (UACC-62 melanoma): > 68.1 µM | TGI (OVCAR-4 ovarian): > 68.1 µM | TGI (COLO 205 colon): > 68.1 µM | TGI (ACHN renal): > 68.1 µM | TGI (SW-620 colon): > 68.1 µM | TGI (MALME-3M melanoma): > 68.1 µM | TGI (OVCAR-5 ovarian): > 68.1 µM | TGI (SNB-19 CNS): > 68.1 µM | TGI (OVCAR-3 ovarian): > 68.1 µM | TGI (SNB-78 CNS): > 68.1 µM | TGI (HL-60(TB) leukemia): > 68.1 µM | TGI (SR leukemia): > 68.1 µM | TGI (DMS 114 small cell lung): > 68.1 µM | TGI (UO-31 renal): > 68.1 µM | TGI (HCT-116 colon): > 68.1 µM | TGI (CAKI-1 renal): > 68.1 µM | TGI (NCI-H226 lung): > 68.1 µM | TGI (LXFL 529 NSCLC): > 68.1 µM | TGI (HOP-62 NSCLC): > 68.1 µM | TGI (SF-295 CNS): > 68.1 µM | TGI (SF-268 CNS): > 68.1 µM | TGI (HT29 colon): > 68.1 µM | TGI (OVCAR-8 ovarian): > 68.1 µM | TGI (HOP-92 NSCLC): > 68.1 µM | TGI (SF-539 CNS): > 68.1 µM | TGI (M14 melanoma): > 68.1 µM | TGI (SK-MEL-5 melanoma): > 68.1 µM | TGI (SNB-75 CNS): > 68.1 µM | TGI (LOX IMVI melanoma): > 68.1 µM | TGI (K-562 leukemia): > 68.1 µM | TGI (A549 NSCLC): > 68.1 µM | TGI (MOLT-4 leukemia): > 68.1 µM | TGI (HOP-18 NSCLC): > 68.1 µM | TGI (RPMI-8226 leukemia): > 68.1 µM | TGI (NCI-H23 lung): > 68.1 µM | TGI (HCT-15 colon): > 68.1 µM | TGI (EKVX NSCLC): > 68.1 µM | TGI (TK-10 renal): > 68.1 µM | TGI (KM20L2 colon): > 68.1 µM | TGI (RXF-631 renal): > 68.1 µM | TGI (A498 renal): > 68.1 µM | TGI (CCRF-CEM leukemia): > 68.1 µM | TGI (786-0 renal): > 68.1 µM | TGI (UACC-257 melanoma): > 68.1 µM | TGI (SN12C renal): > 68.1 µM | TGI (HCC-2998 colon): > 68.1 µM | TGI (SK-MEL-28 melanoma): > 68.1 µM | TGI (NCI-H460 lung): > 68.1 µM | TGI (RXF 393 renal): > 68.1 µM | TGI (IGROV1 ovarian): > 68.1 µM | TGI (M19-MEL melanoma): > 68.1 µM
